Laboratory results published in ChEMBL document CHEMBL4342498, “Design and Discovery of an Orally Efficacious Spiroindolinone-Based Tankyrase Inhibitor for the Treatment of Colon Cancer” (J Med Chem, 2020).
Values after ≈ are worked out from the molar mass of the structure shown.

Tests used:
COLO 320DM = test: Antiproliferative activity against human COLO320DM cells assessed as inhibition of cell growth measured after 4 days by CellTiter-Glo assay; type: functional; conditions: 96 h
Tankyrase 1/2 [1] = molecular target: T1, Tankyrase 1/2 (Homo sapiens, UniProt Q9H2K2+O95271)
T1 sequence (Q9H2K2 whole entry): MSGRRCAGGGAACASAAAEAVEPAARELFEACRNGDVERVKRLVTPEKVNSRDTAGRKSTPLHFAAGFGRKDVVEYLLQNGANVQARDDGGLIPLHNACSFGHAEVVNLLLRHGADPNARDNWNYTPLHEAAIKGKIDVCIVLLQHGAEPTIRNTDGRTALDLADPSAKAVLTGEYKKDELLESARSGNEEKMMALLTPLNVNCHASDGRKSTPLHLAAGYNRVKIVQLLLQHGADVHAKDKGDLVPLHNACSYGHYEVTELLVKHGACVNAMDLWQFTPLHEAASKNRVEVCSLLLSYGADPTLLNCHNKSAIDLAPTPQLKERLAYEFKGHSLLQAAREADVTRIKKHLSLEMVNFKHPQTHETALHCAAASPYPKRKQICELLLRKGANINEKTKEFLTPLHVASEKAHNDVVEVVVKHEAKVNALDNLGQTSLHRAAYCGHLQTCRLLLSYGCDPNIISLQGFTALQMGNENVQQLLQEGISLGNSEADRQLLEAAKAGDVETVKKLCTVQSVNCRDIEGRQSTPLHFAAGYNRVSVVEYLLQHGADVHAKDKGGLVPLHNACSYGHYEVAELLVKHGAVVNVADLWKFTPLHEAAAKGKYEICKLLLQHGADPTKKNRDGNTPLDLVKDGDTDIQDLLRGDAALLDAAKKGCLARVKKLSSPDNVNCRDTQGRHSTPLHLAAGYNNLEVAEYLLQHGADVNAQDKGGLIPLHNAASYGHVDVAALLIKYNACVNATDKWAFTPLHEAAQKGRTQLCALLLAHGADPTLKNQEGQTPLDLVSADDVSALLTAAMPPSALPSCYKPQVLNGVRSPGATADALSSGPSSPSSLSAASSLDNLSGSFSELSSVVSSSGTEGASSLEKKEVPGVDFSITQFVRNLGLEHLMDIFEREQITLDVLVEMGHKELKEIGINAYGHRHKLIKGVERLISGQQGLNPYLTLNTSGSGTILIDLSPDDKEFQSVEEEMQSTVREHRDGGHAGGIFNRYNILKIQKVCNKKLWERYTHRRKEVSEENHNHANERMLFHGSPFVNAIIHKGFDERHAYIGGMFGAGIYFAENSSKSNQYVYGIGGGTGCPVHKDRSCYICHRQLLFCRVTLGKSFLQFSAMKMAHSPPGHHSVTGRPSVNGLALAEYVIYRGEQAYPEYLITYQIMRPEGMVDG
T1 sequence (O95271 whole entry): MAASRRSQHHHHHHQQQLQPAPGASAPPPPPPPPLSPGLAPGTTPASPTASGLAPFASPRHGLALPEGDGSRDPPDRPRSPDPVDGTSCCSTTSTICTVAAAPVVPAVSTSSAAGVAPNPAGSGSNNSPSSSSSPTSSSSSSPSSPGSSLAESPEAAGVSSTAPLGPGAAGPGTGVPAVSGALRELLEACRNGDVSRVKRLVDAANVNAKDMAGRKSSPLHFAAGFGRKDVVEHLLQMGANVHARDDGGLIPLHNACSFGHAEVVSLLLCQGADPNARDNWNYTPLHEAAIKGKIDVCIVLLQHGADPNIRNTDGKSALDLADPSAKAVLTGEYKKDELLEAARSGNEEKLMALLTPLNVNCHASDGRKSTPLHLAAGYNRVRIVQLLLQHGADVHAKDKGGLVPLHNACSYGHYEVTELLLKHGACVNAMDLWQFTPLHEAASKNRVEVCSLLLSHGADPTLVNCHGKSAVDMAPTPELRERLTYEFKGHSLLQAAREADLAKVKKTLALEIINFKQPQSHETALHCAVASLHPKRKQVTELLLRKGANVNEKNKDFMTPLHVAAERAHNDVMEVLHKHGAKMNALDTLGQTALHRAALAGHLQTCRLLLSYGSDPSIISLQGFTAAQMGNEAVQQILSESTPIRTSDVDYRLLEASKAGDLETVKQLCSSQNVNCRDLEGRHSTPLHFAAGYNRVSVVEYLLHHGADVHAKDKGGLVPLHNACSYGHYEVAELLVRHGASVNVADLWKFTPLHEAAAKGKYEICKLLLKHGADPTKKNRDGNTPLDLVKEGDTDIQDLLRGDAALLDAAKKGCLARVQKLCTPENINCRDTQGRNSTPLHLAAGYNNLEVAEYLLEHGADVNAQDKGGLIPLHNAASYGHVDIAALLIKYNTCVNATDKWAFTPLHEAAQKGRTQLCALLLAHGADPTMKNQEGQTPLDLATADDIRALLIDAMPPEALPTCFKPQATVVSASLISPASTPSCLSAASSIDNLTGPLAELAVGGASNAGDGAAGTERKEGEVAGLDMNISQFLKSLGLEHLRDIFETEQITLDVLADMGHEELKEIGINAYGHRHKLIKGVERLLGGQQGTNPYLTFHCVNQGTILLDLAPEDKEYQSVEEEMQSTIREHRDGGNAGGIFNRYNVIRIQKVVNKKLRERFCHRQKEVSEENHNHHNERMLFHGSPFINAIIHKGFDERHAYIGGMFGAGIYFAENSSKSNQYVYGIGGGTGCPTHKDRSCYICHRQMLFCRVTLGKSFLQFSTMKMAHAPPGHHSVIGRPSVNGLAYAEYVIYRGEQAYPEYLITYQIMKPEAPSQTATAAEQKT
Description: Inhibition of TNKS/TNKS2 (unknown origin) expressed in human DLD1 cells assessed as reduction in Wnt-signaling measured after 24 hrs by TCF-luciferase reporter gene assay

physchem = conditions: phosphate buffered saline, pH 7.4
[2] = molecular target: T2, Poly [ADP-ribose] polymerase tankyrase-1 (Homo sapiens, UniProt O95271)
T2 sequence (O95271 whole entry): T1 sequence (O95271 whole entry)
Description: Inhibition of recombinant human N-terminal TEV cleavage site-fused/FLAG-poly his-tagged TNKS SAM-PARP domain (1024 to 1327 residues) expressed in Escherichia coli assessed as reduction in auto-PARylation preincubated for 10 mins followed by biotinylated-NAD+ addition and measured after 45 mins by ELISA

[3] = Stability in mouse liver microsomes assessed as parent compound remaining at 1 uM measured after 60 mins in presence of NADPH by LC-MS/MS analysis; type: ADME, Microsome; conditions: read-out: Stability
[4] = Efflux ratio of permeability across basolateral to apical side over apical to basolateral side in MDCK2 cells; type: ADME, cell-based, Canis lupus familiaris, MDCK-II; conditions: dog, mdck
Tankyrase 1/2 [5] = molecular target: T1, Tankyrase 1/2; conditions: hek293
Description: Inhibition of TNKS/TNKS2 (unknown origin) expressed in HEK293 cells assessed as reduction in Wnt-signaling measured after 24 hrs by TCF-luciferase reporter gene assay

[6] = Stability in human liver microsomes assessed as parent compound remaining at 1 uM measured after 60 mins in presence of NADPH by LC-MS/MS analysis; type: ADME, Microsome; conditions: read-out: Stability
[7] = molecular target: T3, Poly [ADP-ribose] polymerase tankyrase-2 (Homo sapiens, UniProt Q9H2K2); test: Inhibition of recombinant human N-terminal TEV cleavage site-fused/FLAG-poly his-tagged TNKS2 ARC5-SAM-PARP domain (613 to 1166 residues) expressed in Escherichia coli assessed as reduction in auto-PARylation preincubated for 10 mins followed by biotinylated-NAD+ addition and measured after 45 mins by ELISA
T3 sequence (Q9H2K2 whole entry): T1 sequence (Q9H2K2 whole entry)

[8] = Net efflux ratio of permeability across basolateral to apical side over apical to basolateral side in MDCK2-MDR1 cells to MDCK2 cells; type: ADME, cell-based, Canis lupus familiaris; conditions: dog, mdck
MDR1 = test: Efflux ratio of permeability across basolateral to apical side over apical to basolateral side in MDCK2-MDR1 cells; type: ADME, cell-based, Canis lupus familiaris; conditions: dog, MDCK-MDR1

GI50 (COLO 320DM) [nM] | IC50 (Tankyrase 1/2 [1]) [nM] | solubility at 1 h, 200 µM (physchem) [µg/mL] | IC50 [2] [nM] | remaining at 1 h, 1 µM [3] [%] | efflux ratio [4] | IC50 (Tankyrase 1/2 [5]) [nM] | remaining at 1 h, 1 µM [6] [%] | IC50 [7] [nM] | Ratio [8] | efflux ratio (MDR1) | Compound
1120 | 29.1 | 97.3 (≈ 202 µM) | 12.8 | 63.7 | 6.8 | 3.2 | 28.6 | 23.4 | 1.3 | 9.1 | CN1CCCc2c1nc(N1CCC3(CC1)C(=O)N(C)c1cc(N4CCNCC4)cc(F)c13)[nH]c2=O
70 | 2.4 | 1.3 (≈ 2.69 µM) | 16.2 | 1 | 0.7 | 0.2 | 8 | 32.4 | 2.9 | 2 | CN1CCCc2c1nc(N1CCC3(CC1)C(=O)N(CC(F)(F)F)c1cc(F)cc(F)c13)[nH]c2=O
200 | 7.2 | 9.3 (≈ 19.7 µM) | 7.8 | 0.3 | 1.2 | 0.3 | 0 | 12.2 | 7 | 8.4 | CN1CCCc2c1nc(N1CCC3(CC1)C(=O)N(CC1COC1)c1cc(F)cc(F)c13)[nH]c2=O
12600 | 1185 | 92.1 (≈ 200 µM) | 28.5 | 100 | 0.4 | 221 | 100 | 29.8 | 1.3 | 0.5 | CN1CCCc2c1nc(N1CCC3(CC1)C(=O)N(CC(=O)O)c1cc(F)cc(F)c13)[nH]c2=O
660 | 2.7 | 102 (≈ 201 µM) | 6.1 | 60.3 | 4.6 | 0.1 | 22.4 | 21.2 | 2.5 | 11.7 | CN1CCC(Oc2cc(F)c3c(c2)N(C)C(=O)C32CCN(c3nc4c(c(=O)[nH]3)CCCN4C)CC2)CC1
50 | 1.3 | 11.4 (≈ 24.2 µM) | 4.8 | 13.7 | 2.1 | 0.1 | 1.8 | 6.4 | 3.6 | 7.5 | COCCOc1cc(F)c2c(c1)N(C)C(=O)C21CCN(c2nc3c(c(=O)[nH]2)CCCN3C)CC1
3560 | 7.1 |  | 3.8 |  |  | 1.1 |  | 7 |  |  | Cn1ccc2c(=O)[nH]c(N3CCC4(CC3)CN(CCO)c3cc(F)cc(F)c34)nc21
2490 | 4.8 |  | 5.3 |  |  | 0.2 |  | 3.4 |  |  | Cc1cccc2c(=O)[nH]c(N3CCC4(CC3)C(=O)N(CCO)c3cc(F)cc(F)c34)nc12
2270 | 71.2 |  | 14.9 |  |  | 2.1 |  | 20.6 |  |  | O=C1N(CCO)c2cc(F)cc(F)c2C12CCN(c1nc3c(c(=O)[nH]1)CCCC3)CC2
720 | 13.7 |  | 5.5 |  |  | 3.1 |  | 8.5 |  |  | Cc1cccc2c(=O)[nH]c(N3CCC4(CC3)CN(CCO)c3cc(F)cc(F)c34)nc12
5010 | 140.6 |  | 53.5 |  |  | 36.5 |  | 73.6 |  |  | CN1CCc2c1nc(N1CCC3(CC1)CN(CCO)c1cc(F)cc(F)c13)[nH]c2=O
> 20000 | 6.3 |  | 4.5 |  |  | 1.5 |  | 10.2 |  |  | Cn1ccc2c(=O)[nH]c(N3CCC4(CC3)C(=O)N(CCO)c3cc(F)cc(F)c34)nc21
2370 | 32.9 |  | 14.1 |  |  | 4.4 |  | 27.6 |  |  | CN1CCc2c1nc(N1CCC3(CC1)C(=O)N(CCO)c1cc(F)cc(F)c13)[nH]c2=O
